In PubChem BioAssay (NCI):
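Following 48 hours of exposure in 96-well plates, responses at five concentrations were used to interpolate endpoints linearly. GI50 is the concentration that inhibits growth by half. Definition used: TGI = concentration required for complete inhibition of growth.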

What was measured:
Assay in all cases: inhibition of tumour cell growth, NCI panel, 48 h
[1] = system: TK-10 renal
[2] = system: LOX IMVI melanoma
[3] = system: UACC-62 melanoma
[4] = system: HCT-116 colon
[5] = system: NCI-H23 lung
[6] = system: HOP-62 NSCLC
[7] = system: HCC-2998 colon
[8] = system: RXF 393 renal
[9] = system: OVCAR-3 ovarian
[10] = system: MDA-MB-231 breast

Structure (SMILES)	TGI [1] [µM]	TGI [2] [µM]	TGI [3] [µM]	TGI [4] [µM]	TGI [5] [µM]	TGI [6] [µM]	TGI [7] [µM]	TGI [8] [µM]	TGI [9] [µM]	TGI [10] [µM]	GI50 [1] [µM]	GI50 [2] [µM]	GI50 [3] [µM]	GI50 [4] [µM]	GI50 [5] [µM]	GI50 [6] [µM]	GI50 [7] [µM]	GI50 [8] [µM]	GI50 [9] [µM]	GI50 [10] [µM]
Nc1ccc(S(=O)(=O)C23CC4CC(CC(C4)C2)C3)cc1	> 100	> 100	> 100	> 100	> 100	> 100	> 100	79.4	> 100	> 100										
O=[N+]([O-])c1ccc(N/N=C/c2c(O)ccc3ccccc23)nc1	> 100	> 100	> 100	> 100	> 100	> 100	> 100	> 100	> 100	> 100	55.9	1.26	9.82	3.16	> 100	6.82	28.8	> 100	0.517	15.9
COc1ccc(/C=C/c2nc(NCCCN(C)C)c3ccccc3n2)cc1	22	3.42	25.4	5.88	11.5	9.74	27.6	12.1	11.4	5.24	6.59	1.83	11.1	2.3	5.43	5.16	13.8	3.68	4.88	1.99
CCOc1cc2c(NCCCN(CCO)CCO)ncnc2c(OCC)c1OCC	> 100	> 100	> 100	> 100	> 100	> 100	> 100	> 100	> 100	> 100										
COc1cc(/C=C2\CC3C4CC=C5C[C@@H](OC(C)=O)CC[C@]5(C)C4CC[C@]3(C)C2=O)ccc1OCCCn1ccnc1 (some centres undefined)	17.3	15.5	16.5	29.6	17.7	16.4	23	30.3	21.2	15.4	7.08	8.63	8.4	13.4	8.35	8.83	14.6	13	9.79	8.05
C[C@]1(CO)[C@H]2CC[C@@]34C=C[C@@](CO)(CC[C@H]3[C@]2(C)CC[C@H]1O)C4	> 100	> 100	> 100	> 100	> 100	> 100	> 100	> 100	> 100	> 100										
O=c1[nH]c(=O)n(C2OC(CO)C(O)C2O)c2c1CCCC2 (centres undefined)	> 100	> 100	> 100	> 100	> 100	> 100	> 100	> 100	> 100	> 100										
Nc1ccc2c(c1)NCCN2	> 100	> 100	> 100	> 100	> 100	> 100	> 100	> 100	> 100	> 100										
C=C1C(=O)OC2CC1C(O)C/C(C)=C/CC/C(C)=C/C(O)CC2C (centres undefined)	6.91	2.74	6.1	3.33	7.8	25.2	4.21	2.96	9.2	12.4										
CC[C@@]1(O)C(=O)NCc2c1cc1n(c2=O)Cc2cc3c(N)cccc3nc2-1	> 52.8	9.5	20.2	44.2	15.1		9.24	24.9	40	> 60.3	20.1	0.468	1.15	1.22	0.942	0.973	2.04	5.35	11	16.4
COc1ccccc1NC(=O)n1nc(N)c2ccccc21	> 100	> 100	> 100	> 100	> 100	> 100	> 100	> 100	> 100	> 100	64.2	82	> 100	> 71.7	> 100	> 69.3	> 81.4	36.7	> 100	66
CCOC(=O)C(=Cc1ccccc1[N+](=O)[O-])C(=O)OCC	15.7	3.51	3.39	7.56	13.9	12.9	10.7	2.78	6.48	7.59	5.39	1.58	1.59	2.53	3.35	3.48	3.48	1.33	2.65	2.48
N#Cc1c(-c2ccccc2)cc(-c2ccc(Nc3nc(Nc4ccc(Cl)cc4)nc(Nc4ccc(Cl)cc4)n3)cc2)nc1N	4.4	4.33	45.4	3	61.4	35	35.5	4.72	3.68	4.89	1.89	1.85	5.56	1.48	6.14	19.1	7	1.78	1.7	1.76
